Assay results as given in patent publication EP3325012B1, “CINEOLE-CONTAINING COMPOSITION FOR TREATING NOSE POLYPS” (Maria Clementine Martin Klosterfrau Vertriebsgesellschaft …, priority 2015, dated 2017).

What was measured:
Polyposis nasi et sinuum = test: Cell vitality of polyp single-cell suspensions in culture; assay type: cell-based, Mensch; conditions: 1mM Cineol versus standard medium, culture over 288 Stunden; effect after 96 bis 144 Stunden; polyps of 5 patients
Description: Proben von Nasenpolypen wurden in PBS-Puffer gewaschen und in sterilem serumfreiem "High Glucose Dulbecco's Modified Eagle Medium" (PAA, Pasching, Österreich) mit einer Skalpellklinge vorsichtig in kleine Stücke zerkleinert, wobei das Medium 1 % L-Glutamin, 1 % Natriumpyruvat, 1 % nichtessentielle Aminosäuren, 2 % Amphotericin B, 2 % Streptomycin und 2 % Penicillin, ergänzt mit 10 % FCS, und 25 mM HEPES Puffer, enthielt (alle von PAA, Pasching, Österreich). Danach wurden die Gewebeproben durch eine enzymatische Behandlung und Waschschritte mit Collagenase Typ II (31,5 mg/ml, GIBCO, Eggenstein, Deutschland) und Hyaluronidase (3,99 mg/ml, Sigma, München, Deutschland) in einem ersten Schritt und mit Dispase (33,4 mg/ml, Sigma, München, Deutschland) in einem zweiten Schritt jeweils unter Schütteln bei 37 °C für 120 Minuten enzymatisch verdaut. Zwischen den enzymatischen Behandlungen und den Waschschritten wurden die Zellen zentrifugiert. Die resultierenden Zellsuspensionen wurden in PBS (PAA, Pasching, Österreich), enthaltend 2 % BSA, gewaschen und jeweils durch einen 70 µm und einen 60 µm Nylon-Zellfilter (Falcon, Becton Dickinson Labware, Heidelberg, Deutschland) filtriert.
Erste Vorversuche zum Einfluss von Cineol auf die Progression von Polyposis nasi et sinuum wurden durchgeführt. […]

GSK-3 = test: Immunohistochemistry, subcellular (endolysosomal) localisation of GSK-3; assay type: cell-based, Mensch; conditions: 100 µM, versus control medium (Figur 4B)
Source text: Frische eingefrorene Gewebeschnitte wurden für 10 Minuten in 100 % Methanol fixiert. Nach einer Trocknungszeit von 10 Minuten wurden die Schnitte bei Raumtemperatur mit TBS (RT-TBS) gewaschen. Danach wurden die Gewebeproben zur Inhibition der endogenen Peroxidase 15 Minuten lang in RT-TBS mit 3 % H2O2 inkubiert.
Nach einem Waschschritt mit RT-TBS wurden die Proben in TBS mit 0,3 % Triton X für 15 Minuten permeabilisiert. Die Schnitte wurden in einer 1 : 100-Verdünnung mit Anti-Phospho-GSK-3-alpha/beta-Antikörpern (Cell Signaling Technology Inc., Massachusetts, USA, Katalognummern 5676 und 9331) über Nacht bei 4 °C inkubiert.
Am nächsten Tag wurden die Objektträger mit RT-TBS gewaschen und danach für 20 Minuten bei Raumtemperatur mit einem sekundären Polylink-Antikörper inkubiert. Nach dem Waschen mit RT-TBS wurden die Proben mit Peroxidase-Marker (HRP) (beide DCS Detection line, Innovative Diagnostik-Systeme, Hamburg, Deutschland) inkubiert.
Nach dem Waschen mit RT-PBS wurden die Schnitte in AEC (DCS Chromoline, Innovative Diagnostik-Systeme, Hamburg, Deutschland) inkubiert. Die Reaktion wurde mit RT-TBS gestoppt. Schließlich wurde eine Zellkernfärbung mit Mayer's Haematoxylin durchgeführt. Die Schnitte wurden in wässrigem "Dako Faramount Medium" (Dako North America Inc., Carpinteria, CA, USA) eingebettet. […]

Structure (SMILES): CC12CCC(CC1)C(C)(C)O2 [1,8-Cineol, 1,3,3-Trimethyl-2-oxabicyclo[2.2.2]octan]
- Zellvitalität (Polyposis nasi et sinuum): massiven Abfall
- endolysosomale Lokalisierung von GSK-3 (GSK-3): verringerte endolysosomale Lokalisierung
